Measured values taken from patent US12403136B2, “Cannabinoid derivatives as pharmaceutically active compounds and methods of preparation thereof” (JAZZ PHARMACEUTICALS RESEARCH UK LIMITED, priority 2019, dated 2025).

Tested on: mouse model of generalised seizure (tonic hind limb extensor convulsions)
Assay: Maximal electroshock seizure threshold (MEST) test in the mouse
Details: for % change from vehicle: change in CC50; for CC50 +/− SEM: vehicle CC50 21.0 mA
Description: The efficacy of exemplary cannabinoid derivatives according to Formula I and Formula II were tested in a mouse model of generalised seizure, the maximal electroshock seizure threshold (MEST) test.
The maximal electroshock seizure threshold (MEST) test is widely utilized preclinically to evaluate pro- or anti-convulsant properties of test compounds (Loscher et al., 1991).
In the MEST test the ability of a drug to alter the seizure threshold current required to induce hind limb tonic extensor convulsions is measured according to an “up and down” method of shock titration (Kimball et al., 1957). An increase in seizure threshold is indicative of anti-convulsant effect.
Conversely, a reduction in seizure threshold is indicative of a pro-convulsant effect as observed with known convulsant agents such as picrotoxin.
The ability of a test compound to alter the stimulus intensity, expressed as current (mA), required to induce the presence of tonic hind limb extensor convulsions, is assessed in the MEST.
Naïve mice were acclimatised to the procedure room in their home cages for up to 7 days, with food and water available ad libitum.
All animals were weighed at the beginning of the study and randomly assigned to treatment groups based on a mean distribution of body weight across groups.
The first animal within a treatment group was given a shock at the expected or estimated CC50 current. For subsequent animals, the current was lowered or raised depending on the convulsions outcome from the preceding animal.
Data generated from each treatment group were used to calculate the CC50±SEM values for the treatment group.
Vehicle: (5% ethanol, 5% solutol in 90% Saline) was prepared as follows: 2 mL of ethanol, 2 mL of solutol were warmed to 60° C., in 36 mL of saline (1:1:18).
The test compounds used were 12a, 12b, 18a and 18b. Test compounds were administered at 200 mg/kg (i.p.) in a 1:1:18 ethanol:solutol:saline formulation.
The data for each treatment group were recorded as the number of +'s and 0's at each current level employed and this information is then used to calculate the CC50 value (current required for 50% of the animals to show seizure behaviour)±standard error.
Test compound effects were also calculated as percentage change in CC50 from the vehicle control group.
Significant difference between drug-treated animals and controls were assessed according to Litchfield and Wilcoxon (1949).

[1] = 200 mg/kg i.p., 120 min post dose
[2] = 200 mg/kg i.p., test 120 min post dose

C=C(C)[C@@H]1CCC(C)=C[C@H]1c1c(O)cc2c(c1O)[C@H](CC)CCC2 [Compound 12a]
% change from vehicle (200 mg/kg i.p., 60 min post dose): 157% | CC50 +/− SEM (200 mg/kg i.p., test 60 min post dose): 54.0 +/− 0.2 mA

C=C(C)[C@@H]1CCC(C)=C[C@H]1c1c(O)cc2c(c1O)[C@H](CC)CCO2 [Compound 12b]
% change from vehicle (200 mg/kg i.p., 30 min post dose): 109% | CC50 +/− SEM (200 mg/kg i.p., test 30 min post dose): 43.8 +/− 0.2 mA

C=C(C)[C@@H]1CCC(C)=C[C@H]1c1c(O)cc(O)c2c1CCC[C@H]2CC [Compound 18a]
% change from vehicle [1]: 99% | CC50 +/− SEM [2]: 41.8 +/− 0.5 mA

C=C(C)[C@@H]1CCC(C)=C[C@H]1c1c(O)cc(O)c2c1OCC[C@H]2CC [Compound 18b]
% change from vehicle [1]: 92% | CC50 +/− SEM [2]: 40.3 +/− 0.8 mA

CN1C(=O)CN=C(c2ccccc2)c2cc(Cl)ccc21 [Diazepam, diazepam, reference compound]
% change from vehicle (diazepam 2.5 mg/kg i.p., 30 min post dose): 66%
